Data set [1] can be described thus: Liver microsomal metabolic stability, human. The following applies: % remaining after 60 min, 1 μM compound, 0.5 mg/mL protein. The data set is classed as in vitro ADME. The method, then: (§1) (f) Microsomal Stability Assays
(§2) Liver Microsomal Metabolic Stability
(§3) Working stocks were initially diluted to a concentration of 40.0 μM in 0.1 M potassium phosphate buffer (pH 7.4) before addition to the reaction vials. CD-1 mouse (male) or pooled human liver microsomes (Corning Gentest) were utilized at a final concentration of 0.5 mg/mL (protein). Duplicate wells were used for each time point (0 and 60 minutes). Reactions were carried out at 37° C. in an orbital shaker at 175 rpm, and the final DMSO concentration was kept constant at 0.1%. The final volume for each reaction was 100 μL, which includes the addition of an NADPH-Regeneration Solution (NRS) mix. This NRS mix is comprised of glucose 6-phosphate dehydrogenase, NADP+, MgCl2, and glucose 6-phosphate. Upon completion of the 60 minute time point, reactions were terminated by the addition of 2-volumes (200 μL) of ice-cold, acetonitrile containing 0.5% formic acid and internal standard. Samples were then centrifuged at 4,000 rpm for 10 minutes to remove debris and precipitated protein. Approximately 150 μL of supernatant was subsequently transferred to a new 96 well microplate for LC/MS analysis:
(§4) Narrow-window mass extraction LC-MS analysis was performed for all samples in this study using a Waters Xevo quadrupole time-of-flight (QTof) mass spectrometer to determine relative peak areas of test compounds. The percent remaining values are calculated using the following equations: % remaining=(A)/A0×100
(§5) A is area response after incubation
(§6) A0 is area response at initial time point

The nature of data set [2]: Liver microsomal metabolic stability, mouse. The data set is classed as in vitro ADME. The following applies: % remaining after 60 min, 1 μM compound, 0.5 mg/mL protein. The method, then: as §1, §2, §3, §4, §5, §6
Data set [3] in a line: Microsomal intrinsic clearance assay. The format is in vitro ADME. The following applies: pH 7.4, liver microsomes 0.5 mg/mL, species (mouse or human) not given; for microsomal CLint at 1 μM: read-out: Clint (μL/min/mg protein). On the procedure: CD-1 mouse (male) or pooled human liver microsomes (Corning Gentest) were utilized at a final concentration of 0.5 mg/mL (protein). 12.5 μL of each drug solution were placed into a well of 96 well plate. Reactions were initiated by the addition of activated microsome solutions (500 μL) to drug solutions. Reactions were carried out at 37° C. in an orbital shaker at 175 rpm, and the final DMSO concentration was kept constant at 0.1%. Test compounds were incubated at a final concentration of 1 μM. 50 μL of aliquots of reaction mixtures were quenched by mixing with two parts of stop solution (internal standard containing 0.5% formic acid in acetonitrile) at appropriate time-points and mixed well. Then, solutions were centrifuged at 4000 rpm for 10 min. Supernatants were transferred to a new 96-well plate and analyzed by a Waters Q-TOF mass spectrometer coupled with an UPLC System. Recovery analysis was performed using relative peak areas and narrow window mass extraction.
The ln(% remaining) is plotted against time and the gradient of the line determined. Elimination Constant (k)=−slope Half-life (t½)(min)=ln 2/k=0.693/k V (μL/mg)=volume of incubation (μL)/protein in the incubation (mg) Intrinsic Clearance (CLint)(μL/min/mg protein)=V·0.693/t½=V·k

The conditions of data set [4]: as reported; limits use in animal studies; cited from earlier work.
Data set [5] concerns the target T1, BTB domain of BCL6 / SMRT BBD peptide (Homo sapiens, UniProt P41182).
T1 construct: Thioredoxin-His6-STag-TEV-biotinylation-thrombin-BCL6 amino acids 1-129
As to the kind of experiment: BCL6-BTB - SMRT peptide inhibition fluorescence polarization (FP) screen. The format is binding. The following applies: 1.25 uM BCL6-BTB, 20 nM Bodipy-TMR SMRT peptide probe; lower limit of assay 1 uM. The method, then: (a) BCL6-BTB—SMRT Peptide Inhibition Fluorescence Polarization (FP) Screen
Compounds were dissolved in 100% DMSO at 10 mM, assayed fresh, and then stored at −20° C. for repeat studies and future work. The reaction mixture consists of 1.25 uM of the 25 kd BCL6-BTB domain (Thioredoxin-His6-STag-TEV-biotinylation-thrombin-BCL6 amino acids 1-129) plus 20 nM of the peptide probe Ac-GSLVATVKEAGRSIHEIPA (SEQ ID NO: 1) with 16 amino acid peptide from the SMRT BBD (1414-1429) with a Bodipy-TMR fluorescent label on the lysine. […] 20 ul of this assay mixture was added to each well of the 384 well plates with the exception of the control wells that contained no protein (for setting the minimum FP value). Compounds were directly sprayed using an HP D300 Digital Dispenser from 10 mM DMSO stocks onto black 384 well plates (greiner bio-one #781900) in a concentration range from 1 uM to 500 uM (10 points in duplicate). The assay was equilibrated for 1 hour prior to reading the FP values (Ex 540 nm/Em 580 nm) with a Perkin Elmer Envision plate reader. The results were curve fitted and IC50 values were calculated using the BioAssay software from CambridgeSoft.
Background: Fluorescence polarisation rises when a labelled molecule tumbles more slowly, as on binding a larger partner.

The next data set deals with T2, BCL6 BTB domain (Homo sapiens, UniProt P41182).
T2 construct: BCL6 BTB domain (biotin-thrombin-BCL6 amino acids 1-129; 17 kd); Thioredoxin-His6-STag (N, cleaved yes); made in house
As to the kind of experiment: Surface plasmon resonance (SPR) assay. The format is binding. The following applies: Biacore T200, single cycle kinetics. On the procedure:
(b) Surface Plasmon Resonance (SPR) Assay
SPR studies were performed using a Biacore™ T200 instrument (GE Health Sciences Inc.). The BCL6 BTB protein used in the FP assay was biotinylated using the site specific biotinylating enzyme BirA, and then cleaved with TEV protease to produce the BCL6 BTB domain (biotin-thrombin-BCL6 amino acids 1-129; 17 kd) that was use in SPR. This protein was stably captured (1000RU) to streptavidin coupled SA chips (BR-1005-31, GE Health Sciences Inc.) according to the manufacture's protocol. Compounds were dissolved in 100% DMSO at 10 mM and 2-fold serial dilutions were done in 100% DMSO. For SPR analysis the serially titrated compounds were diluted 1/20 into buffer (10 mM HEPES pH7.4, 150 mM NaCl, 0.05% Tween-20, 3 mM EDTA) giving a final concentration of 5% DMSO. The Biacore flow rate was set at 100 ul/min. For KD determinations, single cycle kinetic analysis was performed with an on time of 60 seconds, and an off time of 300 seconds. Curve fitting and KD calculations were done with the Biacore T200 Evaluation software (GE Health Sciences Inc).
Background: In SPR one partner is held on a chip, and binding of the other changes the refractive index at the surface.

Data set [6] concerns SuDHL4-3xBCL6-TK-Luc cells. The data set is described as follows: Cell-based BCL6 reporter luciferase assay. As to conditions: Homo sapiens, SU-DHL-4, 48 h, two days. The method, then:
(c) Cell-Based Luciferase Assay:
A BCL6 reporter construct containing three copies of the consensus BCL6 binding site, the TK promoter, and the firefly luciferase gene was stably expressed in SuDHL4 cells after lentivirus infection and selection with Blasticidin. SuDHL4-3×BCL6-TK-Luc cells were seeded into a Viewplate 384-well assay dish at 15,000 cells/well in 25 ul medium (Alpha-MEM high glucose containing 10% FBS, 25 mM HEPES, […] GlutaMAX, 100 ug/ml Normocin, and […] Gentamycin, Invitrogen). A HP D300 digital dispenser was used to dose cells with DMSO or test compounds across a 10-point range of concentrations (high dose of 10 uM), and cultures were grown in a humidified 5% CO2 incubator at 37° C. After two days, plates were removed from incubator and equilibrated to room temperature. An equal volume of neolite reporter gene assay reagent was added to each well, and samples were processed according to manufacturer's instructions (Perkin Elmer). Luminescent signal was measured using an Envision plate reader equipped with a US-Luminescence detector.

Another data set deals with Karpas422 cells. As to the kind of experiment: Tumor cell growth inhibition assay. The format is cell-based. The following applies: Homo sapiens, KARPAS-422, 144 h; Karpas422, six days, ATPlite; read-out: GI Karpas EC50. The method, then:
(d) Tumor Cell Growth inhibition Assay:
Karpas422 cells were seeded into a 96-well plate at 2,000 cells/well in 150 ul medium (Alpha-MEM containing 10% FBS, […] Normocin, and […] Gentamycin, Invitrogen). A HP D300 digital dispenser was used to dose cells with DMSO or test compounds across a 10-point range of concentrations (high dose of 5 uM), and cultures were grown in a humidified 5% CO2 incubator at 37° C. After six days, plates were removed from incubator and equilibrated to room temperature. An equal volume of ATPlite assay reagent was added to each well, and samples were processed according to manufacturer's instructions (Perkin Elmer). Luminescent signal was measured using an Envision plate reader equipped with a US-Luminescence detector.

A value given as a limit tells only on which side of the number the result lay.

Broadly, the half-life is the time needed for the level to fall by half in the phase considered. Regarding `CNC(=O)COc1cc2cc(Nc3nc(N4C[C@H](C)C[C@H](C)C4)ncc3Cl)ccc2n(C)c1=O` [BI-3802, reference compound], the “Human Liver Microsomes (HLM, % @ 1 h)” value in data set [1] is on record as 25%. Besides, the “Mouse Liver Microsomes (MLM, % @ 1 h)” value in data set [2] was determined as 13%. In data set [3], the half-life at 1 μM is 12 min and the microsomal CLint at 1 μM came to 112 µL/min/mg. For the same molecule, in data set [4], the bioavailability result is given as “poor bioavailability”.
A word on the IC50: it is the concentration at which inhibition is half-maximal. By Kd is commonly meant the equilibrium constant for the complex coming apart. Read a low Kd as tighter binding. As a reminder, the EC50 is the concentration at which the effect is half-maximal. As to `[2H]C([2H])([2H])NC(=O)C([2H])([2H])Oc1cc2cc(Nc3nc(N4C[C@H](C)C[C@H](C)C4)ncc3Cl)ccc2n(C)c1=O` [Example Ia, 2-((6-((5-chloro-2-((3R,5S)-3,5-dimethylpiperidin-1-yl)pyrimidin-4-yl)amino)-1-methyl-2-oxo-1,2-dihydroquinolin-3-yl)oxy)-N-(methyl-d3)acetamide-2,2-d2], the IC50 in data set [5] was at most 1000 nM. On BCL6 BTB domain, the dissociation constant (Kd) is 4.56 nM. Further, the midpoint of inhibition in data set [6], the IC50, lay at 46.6 nM. In addition, the EC50 with Karpas422 cells was 14.1 nM. Also, in data set [1], the “Human Liver Microsomes (HLM, % @ 1 h)” value was found to be 26%. For the same molecule, the “Mouse Liver Microsomes (MLM, % @ 1 h)” value in data set [2] is given as 8%. Also, in data set [3], the half-life at 1 μM came out at 29 min and the microsomal CLint at 1 μM worked out at 48 µL/min/mg.
In turn, `[2H]C([2H])([2H])NC(=O)C([2H])([2H])Oc1cc2cc(Nc3nc(N4C[C@@H](C)C(F)(F)[C@@H](C)C4)ncc3Cl)ccc2n(C)c1=O` [Ib] yielded an IC50 in data set [5] of at most 900 nM. Further, at BCL6 BTB domain, the affinity, expressed as Kd, was 4.53 nM. Half-maximal inhibition in data set [6] (IC50) was put at 7.57 nM. In the data set on Karpas422 cells, the half-maximal effective concentration (EC50) was 5.04 nM. For the same molecule, in data set [1], the “Human Liver Microsomes (HLM, % @ 1 h)” value came to 100%. In data set [2], the “Mouse Liver Microsomes (MLM, % @ 1 h)” value was 91%. Also, in data set [3], the half-life at 1 μM is 82 min and the microsomal CLint at 1 μM was 17 µL/min/mg.
